Measurements: patent publication US9328099B2, “Cyanomethylpyrazole carboxamides as janus kinase inhibitors” (Merck Sharp & Dohme Corp., priority 2011, dated 2016)

What was measured:
[1] = target: JAK2 (Homo sapiens (Human), UniProt O60674); test: Jak Biochemical HTRF Assay, JAK2; conditions: HTRF biochemical assay, GST-tagged catalytic domain; top concentration tested […]
Text: (§1) Jak Biochemical HTRF Assay Protocol
(§2) Subsequent reagent additions employed an Agilent Bravo.

[2] = target: JAK1 (Homo sapiens (Human), UniProt P23458); test: Jak Biochemical HTRF Assay, JAK1; conditions: HTRF biochemical assay, GST-tagged catalytic domain; top concentration tested […]; read-out: JAK1 IC50
Text: as §1, §2

JAK2, sequence (O60674 849-1124): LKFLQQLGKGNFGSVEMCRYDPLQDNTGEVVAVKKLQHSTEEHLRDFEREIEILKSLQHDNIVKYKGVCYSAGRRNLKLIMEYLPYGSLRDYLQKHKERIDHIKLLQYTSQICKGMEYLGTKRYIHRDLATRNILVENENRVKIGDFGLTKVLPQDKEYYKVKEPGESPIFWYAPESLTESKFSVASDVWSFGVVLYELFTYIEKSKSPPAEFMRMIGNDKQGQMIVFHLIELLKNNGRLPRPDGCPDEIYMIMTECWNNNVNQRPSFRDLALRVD
JAK1, sequence (P23458 875-1153): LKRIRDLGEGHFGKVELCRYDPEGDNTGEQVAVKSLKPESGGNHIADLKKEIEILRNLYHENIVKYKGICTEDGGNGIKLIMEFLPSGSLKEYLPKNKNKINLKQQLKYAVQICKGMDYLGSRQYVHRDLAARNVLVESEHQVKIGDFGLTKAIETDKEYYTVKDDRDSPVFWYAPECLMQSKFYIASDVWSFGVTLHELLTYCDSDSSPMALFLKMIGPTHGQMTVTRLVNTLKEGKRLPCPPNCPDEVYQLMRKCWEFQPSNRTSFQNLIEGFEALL

Structure (SMILES) | IC50 [1] [nM] | IC50 [2] [nM]
COc1cccnc1N1CCC(CC#N)(n2cc(C(N)=O)c(Nc3ccc(F)cc3)n2)CC1 [Example 3-23, 1-[4-(cyanomethyl)-1-(3-methoxypyridin-2-yl)piperidin-4-yl]-3-[(4-fluorophenyl)amino]-1H-pyrazole-4-carboxamide] | 559 | 33
N#CCC1(n2cc(C(N)=O)c(Nc3ccnc(F)c3)n2)CCN(Cc2ccccc2)CC1 [Example 22-8, 1-[1-benzyl-4-(cyanomethyl)piperidin-4-yl]-3-[(2-fluoropyridin-4-yl)amino]-1H-pyrazole-4-carboxamide] | 6 | 0.1
N#CCC1(n2cc(C(N)=O)c(Nc3ccc(F)cc3)n2)CCC(NCc2ccccc2)CC1 (stereo not drawn) [Example 40-92, Cis or trans 1-[4-(benzylamino)-1-(cyanomethyl)cyclohexyl]-3-[(4-fluorophenyl)amino]-1H-pyrazole-4-carboxamide] | 0.2 | 0.04
N#CCC1(n2cc(C(N)=O)c(Nc3ccccc3)n2)CCN(Cc2ccc(C(F)(F)F)cc2)CC1 [Example 21-19, 1-{4-(cyanomethyl)-1-[4-(trifluoromethyl)benzyl]piperidin-4-yl}-3-(phenylamino)-1H-pyrazole-4-carboxamide] | 460 | 35
Cn1ccc(-c2ccc(Nc3nn(C4(CC#N)CCN(C(=O)OC(C)(C)C)CC4)cc3C(N)=O)cc2)n1 [Example 9-13, tert-butyl 4-(4-carbamoyl-3-{[4-(1-methyl-1H-pyrazol-3-yl)phenyl]amino}-1H-pyrazol-1-yl)-4-(cyanomethyl)piperidine-1-carboxylate] | 138 | 3
N#CCC1(n2cc(C(N)=O)c(Nc3ccnc(F)c3)n2)CCN(C(=O)OCC2CC2)CC1 [Example 30-49, Cyclopropylmethyl 4-{4-carbamoyl-3-[(2-fluoropyridin-4-yl)amino]-1H-pyrazol-1-yl}-4-(cyanomethyl)piperidine-1-carboxylate] | 18 | 0.3
N#CCC1(n2cc(C(N)=O)c(Nc3ccnc(F)c3)n2)CCN(Cc2cncc(F)c2)CC1 [Example 22-38, 1-{4-(cyanomethyl)-1-[(5-fluoropyridin-3-yl)methyl]piperidin-4-yl}-3-[(2-fluoropyridin-4-yl)amino]-1H-pyrazole-4-carboxamide] | 5 | 0.2
Cc1ccc(C)c(NC(=O)N2CC(CC#N)(n3cc(C(N)=O)c(Nc4ccccc4)n3)C2)c1 [Example 38-16, 1-{3-(cyanomethyl)-1-[(2,5-dimethylphenyl)carbamoyl]azetidin-3-yl}-3-(phenylamino)-1H-pyrazole-4-carboxamide] | 111 | 7
N#CCC1(n2cc(C(N)=O)c(Nc3ccnc(F)c3)n2)CCC(NCc2ccncc2)CC1 (stereo not drawn) [Example 41-13, Cis or trans 1-{1-(cyanomethyl)-4-[(pyridin-4-ylmethyl)amino]cyclohexyl}-3-[(2-fluoropyridin-4-yl)amino]-1H-pyrazole-4-carboxamide] | 1000 | 86
N#CCC1(n2cc(C(N)=O)c(Nc3ccccc3)n2)CCN(S(=O)(=O)c2ccccc2Cl)CC1 [Example 37-12, 1-{1-[(2-chlorophenyl)sulfonyl]-4-(cyanomethyl)piperidin-4-yl}-3-(phenylamino)-1H-pyrazole-4-carboxamide] | 9 | 3
N#CCC1(n2cc(C(N)=O)c(Nc3ccnc(F)c3)n2)CCC(NC2CCCCC2)CC1 (stereo not drawn) [Example 40-51, Cis or trans 1-[1-(cyanomethyl)-4-(cyclohexylamino)cyclohexyl]-3-[(2-fluoropyridin-4-yl)amino]-1H-pyrazole-4-carboxamide] | > 1500 | 598
N#CCC1(n2cc(C(N)=O)c(Nc3ccc(F)cc3)n2)CCC(NCC2CC2)CC1 (stereo not drawn) [Example 40-69, Cis or trans 1-{1-(cyanomethyl)-4-[(cyclopropylmethyl)amino]cyclohexyl}-3-[(4-fluorophenyl)amino]-1H-pyrazole-4-carboxamide] | 667 | 9
N#CCC1(n2cc(C(N)=O)c(Nc3ccc(F)cc3)n2)CCC(Nc2ccccc2F)CC1 (stereo not drawn) [Example 40-60, Cis or trans 1-{1-(cyanomethyl)-4-[(2-fluorophenyl)amino]cyclohexyl}-3-[(4-fluorophenyl)amino]-1H-pyrazole-4-carboxamide] | 758 | 45
N#CCC1(n2cc(C(N)=O)c(Nc3cncc(F)c3)n2)CCN(C(=O)OCC(F)F)CC1 [Example 30-15, 2,2-difluoroethyl 4-(4-carbamoyl-3-(5-fluoropyridin-3-ylamino)-1H-pyrazol-1-yl)-4-(cyanomethyl)piperidine-1-carboxylate] | 19 | 1
N#CCC1(n2cc(C(N)=O)c(Nc3ccnc(C4CC4)c3)n2)CCN(C(=O)OCC(F)F)CC1 [Example 9-41, 2,2-difluoroethyl 4-{4-carbamoyl-3-[(2-cyclopropylpyridin-4-yl)amino]-1H-pyrazol-1-yl}-4-(cyanomethyl)piperidine-1-carboxylate] | 201 | 6
N#CCC1(n2cc(C(N)=O)c(Nc3ccccc3)n2)CN(C(=O)NC2CCCCC2)C1 [Example 38-2, 1-[3-(cyanomethyl)-1-(cyclohexylcarbamoyl)azetidin-3-yl]-3-(phenylamino)-1H-pyrazole-4-carboxamide] | 628 | 20
N#CCC1(n2cc(C(N)=O)c(Nc3cccc(-c4cc[nH]n4)c3)n2)CCN(C(=O)OCC(F)(F)F)CC1 [Example 10-4, 2,2,2-trifluoroethyl 4-(3-(3-(1H-pyrazol-3-yl)phenylamino)-4-carbamoyl-1H-pyrazol-1-yl)-4-(cyanomethyl)piperidine-1-carboxylate] | 29 | 0.4
CC(C)(C)OC(=O)N1CC(CC#N)(n2cc(C(N)=O)c(Nc3ccc(S(C)(=O)=O)cc3)n2)C1 [Example 2-5, tert-butyl 3-(4-carbamoyl-3-{[4-(methylsulfonyl)phenyl]amino}-1H-pyrazol-1-yl)-3-(cyanomethyl)azetidine-1-carboxylate] | 7 | 0.6
N#CCC1(n2cc(C(N)=O)c(Nc3ccccc3)n2)CCN(C(=O)C2CCCCC2)CC1 [Example 34-13, 1-[4-(cyanomethyl)-1-(cyclohexylcarbonyl)piperidin-4-yl]-3-(phenylamino)-1H-pyrazole-4-carboxamide] | 44 | 2
C[C@@H](O)CC(=O)N1CCC(CC#N)(n2cc(C(N)=O)c(Nc3ccnc(F)c3)n2)CC1 [Example 34-62, 1-{4-(cyanomethyl)-1-[(3R)-3-hydroxybutanoyl]piperidin-4-yl}-3-[(2-fluoropyridin-4-yl)amino]-1H-pyrazole-4-carboxamide] | 47 | 1
COCC(C)(C)OC(=O)N1CCC(CC#N)(n2cc(C(N)=O)c(Nc3ccc(F)cc3)n2)CC1 [Example 28, 2-Methoxy-1,1-dimethylethyl 4-{4-carbamoyl-3-[(4-fluorophenyl)amino]-1H-pyrazol-1-yl}-4-(cyanomethyl)piperidine-1-carboxylate] | 74 | 4
Cc1cccc(Nc2nn(C3(CC#N)CCN(C(=O)OC(C)(C)C)CC3)cc2C(N)=O)n1 [Example 13-2, tert-butyl 4-(4-carbamoyl-3-(6-methylpyridin-2-ylamino)-1H-pyrazol-1-yl)-4-(cyanomethyl)piperidine-1-carboxylate] | 1010 | 13
N#CCC1(n2cc(C(N)=O)c(Nc3ccnc(F)c3)n2)CCN(CC2CCCCC2)CC1 [Example 22-3, 1-[4-(cyanomethyl)-1-(cyclohexylmethyl)piperidin-4-yl]-3-[(2-fluoropyridin-4-yl)amino]-1H-pyrazole-4-carboxamide] | 57 | 1
N#CCC1(n2cc(C(N)=O)c(Nc3ccc(F)cc3)n2)CCN(Cc2cccc(F)n2)CC1 [Example 22-46, 1-{4-(cyanomethyl)-1-[(6-fluoropyridin-2-yl)methyl]piperidin-4-yl}-3-[(4-fluorophenyl)amino]-1H-pyrazole-4-carboxamide] | 95 | 3
CC(C)(C)OC(=O)N1CCC(CC#N)(n2cc(C(N)=O)c(Nc3cnc(C#N)nc3)n2)CC1 [Example 4-6, tert-butyl 4-{4-carbamoyl-3-[(2-cyanopyrimidin-5-yl)amino]-1H-pyrazol-1-yl}-4-(cyanomethyl)piperidine-1-carboxylate] | 38 | 3
N#CCC1(n2cc(C(N)=O)c(Nc3ccnc(F)c3)n2)CCN(Cc2cccc(C#N)c2)CC1 [Example 22-62, 1-[1-(3-cyanobenzyl)-4-(cyanomethyl)piperidin-4-yl]-3-[(2-fluoropyridin-4-yl)amino]-1H-pyrazole-4-carboxamide] | 33 | 0.9
N#CCC1(n2cc(C(N)=O)c(Nc3ccnc(F)c3)n2)CCC(N2CC(F)C2)CC1 (stereo not drawn) [Example 40-82, Cis or trans 1-[1-(cyanomethyl)-4-(3-fluoroazetidin-1-yl)cyclohexyl]-3-[(2-fluoropyridin-4-yl)amino]-1H-pyrazole-4-carboxamide] | 444 | 26
N#CCC1(n2cc(C(N)=O)c(Nc3ccc(F)cc3)n2)CCN(Cc2ccc(F)cn2)CC1 [Example 22-48, 1-{4-(cyanomethyl)-1-[(5-fluoropyridin-2-yl)methyl]piperidin-4-yl}-3-[(4-fluorophenyl)amino]-1H-pyrazole-4-carboxamide] | 73 | 2
N#CCC1(n2cc(C(N)=O)c(Nc3ccccc3)n2)CCN(C(=O)c2ccccc2)CC1 [Example 34-7, 1-[4-(cyanomethyl)-1-(phenylcarbonyl)piperidin-4-yl]-3-(phenylamino)-1H-pyrazole-4-carboxamide] | 94 | 6
N#CCC1(n2cc(C(N)=O)c(Nc3ccccc3)n2)CN(S(=O)(=O)C(F)(F)F)C1 [Example 37-18, 1-{3-(cyanomethyl)-1-[(trifluoromethyl)sulfonyl]azetidin-3-yl}-3-(phenylamino)-1H-pyrazole-4-carboxamide] | 585 | 159
